Laboratory results reported in patent US9751840B2, “R-7-(3-aminomethyl-4-methoxyimino-3-methyl-pyrrolidin-1-yl)-1-cyclopropyl-6-fluoro-4-oxo-acid and L-aspartic acid salt, process for the preparation thereof and pharmaceutical composition comprising the same for antimicrobial” (ARIBIO CO. LTD., priority 2009, dated 2017).
Read-outs that look alike come from different tables or passages of the source.

What was measured:
Solubility test = format: physicochemical; conditions: room temperature, water
[1] = Stability test in distilled water; format: physicochemical; conditions: 30 mg in 100 ml distilled water
[2] = tested on: polychromatic erythrocyte with one or more nuclei (MNPCE); assay: In vivo genotoxicity, micronucleus test; conditions: male mice, intraperitoneal, 7.5 mg/kg
Source text: The following study performed to obtain in vivo genotoxicities, micronucleus test of L-aspartate and hydrochloric acid salt in male mice to the following procedure.

[3] = In vivo pharmacokinetic test; design: species or system SD rats; conditions: rats; for AUC(0-t) / Cmax / Tmax: SD, rat, plasma
Source text: The L-aspartate and hydrochloride according to the present invention were orally or intravenously administered to SD rats, respectively and blood samples were collected at a predetermined time to compare in vivo pharmacokinetics.
Then, Cmax: maximum drug concentration, Tmax: maximum drug concentration time, T1/2: drug half-life, AUCO-t: area under the plasma concentration-time curve from time zero to t hours, and AUCO-inf: area under the plasma concentration-time curve from time zero to infinity.

[4] = In vivo tissue distribution test; design: species or system ICR mice; conditions: mouse, po; for Kp: ICR, 100 mg/kg
Procedure: An in vivo tissue distribution test was performed in order to confirm the degree of drug distribution of the L-aspartate and hydrochloride according to the present invention in each organ. After 8-week-old ICR mice were purchased and adapted in the laboratory, each salt was orally administered to the mouse at a dose of 100 mg/kg. The mice were bled and sacrificed at a predetermined time and each organ was drawn to measure the concentration in each organ. After the administration of hydrochloride and L-aspartate, each organ concentration over time, the area under the corresponding time-concentration curve, and the ratio of permeation into tissue were shown in Tables 5 and 6.
Then, P ratio is a ratio of permeation into muscle and calculated as intramuscular AUC/intraplasmic AUC.

[5] = In vivo tissue distribution test; design: species or system ICR mice; conditions: ICR, mouse, spleen, po, 100 mg/kg; read-out: P ratio Spleen
Male ICR mice = assay: Single dose toxicity in mice (LD50); conditions: single intraperitoneal dose, observed 14 days
Procedure: The following experiment was performed in order to observe the degree of toxicity of the L-aspartate according to the present invention.
Male ICR mice were used as experimental animals. 5 male ICR mice were divided into 6 dose groups, respectively and fasted except for water for 24 hours.

[6] = male, testicle, ICR mice, p.o. 100 mg/kg, read-out: Testicle concentration
[7] = brain, ICR mice, p.o. 100 mg/kg, read-out: Brain concentration
[8] = heart, ICR mice, p.o. 100 mg/kg, read-out: Heart concentration
[9] = kidney, ICR mice, p.o. 100 mg/kg, read-out: Kidney concentration
[10] = liver, ICR mice, p.o. 100 mg/kg, read-out: Liver concentration
[11] = lung, ICR mice, p.o. 100 mg/kg, read-out: Lung concentration
[12] = muscle, ICR mice, p.o. 100 mg/kg, read-out: Muscle concentration
[13] = plasma, ICR mice, p.o. 100 mg/kg, read-out: Plasma concentration
[14] = spleen, ICR mice, p.o. 100 mg/kg, read-out: Spleen concentration
[15] = testicle, ICR mice, p.o. 100 mg/kg, read-out: Testicle concentration
[16] = thymus, ICR mice, p.o. 100 mg/kg, read-out: Thymus concentration

For `CON=C1CN(c2nc3c(cc2F)c(=O)c(C(=O)O)cn3C2CC2)C[C@@]1(C)CN.Cl` [Hydrochloride (Comparative Example 3)], the solubility (Solubility test) was 93.3 mg/mL, the “Content (%) 60? (after 3 weeks)” value ([1]; 60?, 3 weeks) was 90.0% and the “Content (%) Initial” value ([1]; initial) was 97.9%. For the same compound, the “Content (%) Room temperature (after 3 weeks)” value ([1]; room temperature, 3 weeks) was 98.0%, the MNPCE number [2] was “singificantly increase” and the AUC(0-t) ([3]; iv, i.v. 10 mg/kg) was 8720 ± 330 ng·h/mL. For the same compound, the Cmax ([3]; iv, i.v. 10 mg/kg) was 4460 ± 960 ng/mL, the Tmax ([3]; iv, i.v. 10 mg/kg) was 0 h and the AUC(0-t) ([3]; po, p.o. 100 mg/kg) was 44400 ± 21400 ng·h/mL. For the same compound, the Cmax ([3]; po, p.o. 100 mg/kg) was 7620 ± 3930 ng/mL, the Tmax ([3]; po, p.o. 100 mg/kg) was 2.13 ± 1.97 h and the “BA (%)” value ([3]; p.o. 100 mg/kg, calculated by ratio of AUC0-t) was 50.96%. The Kp ([4]; brain, read-out: P ratio Brain) was 0.27, the Kp ([4]; heart, read-out: P ratio Heart) was 4.19 and the Kp ([4]; kidney, read-out: P ratio Kidney) was 6.59. The Kp ([4]; liver, read-out: P ratio Liver) was 10.5, the Kp ([4]; lung, read-out: P ratio Lung) was 5.59 and the Kp ([4]; muscle, read-out: P ratio Muscle) was 3.92. The Kp ([4]; thymus, read-out: P ratio Thymus) was 4.83, the Kp ([4]; male, testicle, read-out: P ratio Testicle) was 1.7 and the concentration at 0.5 h [4, 6] was 4790 ng/g. The concentration at 1 h [4, 6] was 8360 ng/g, the concentration at 8 h [4, 6] was 7770 ng/g and the concentration at 0.5 h [4, 7] was 2510 ng/g. The concentration at 1 h [4, 7] was 3090 ng/g, the concentration at 1.5 h [4, 7] was 2720 ng/g and the concentration at 2 hr [4, 7] was 3180 ng/g. For the same compound, the concentration at 3 h [4, 7] was 1990 ng/g, the concentration at 5 h [4, 7] was 1600 ng/g and the concentration at 8 h [4, 7] was 730 ng/g. It also gave a concentration at 0.5 h [4, 8] of 59300 ng/g, a concentration at 1 h [4, 8] of 61200 ng/g and a concentration at 1.5 hr [4, 8] of 52700 ng/g. The concentration at 2 hr [4, 8] was 57600 ng/g, the concentration at 3 h [4, 8] was 25500 ng/g and the concentration at 5 h [4, 8] was 17300 ng/g. The concentration at 8 h [4, 8] was 8860 ng/g, the concentration at 0.5 h [4, 9] was 90800 ng/g and the concentration at 1 h [4, 9] was 87800 ng/g. It also gave a concentration at 1.5 h [4, 9] of 75500 ng/g, a concentration at 2 hr [4, 9] of 69900 ng/g and a concentration at 3 h [4, 9] of 43000 ng/g. The concentration at 5 h [4, 9] was 32800 ng/g, the concentration at 8 h [4, 9] was 18000 ng/g and the concentration at 0.5 h [4, 10] was 161000 ng/g. The concentration at 1 h [4, 10] was 125000 ng/g, the concentration at 1.5 h [4, 10] was 113000 ng/g and the concentration at 2 hr [4, 10] was 109000 ng/g. For the same compound, the concentration at 3 h [4, 10] was 69000 ng/g, the concentration at 5 h [4, 10] was 55700 ng/g and the concentration at 8 h [4, 10] was 27000 ng/g. For the same compound, the concentration at 0.5 h [4, 11] was 82800 ng/g, the concentration at 1 h [4, 11] was 79500 ng/g and the concentration at 1.5 h [4, 11] was 73600 ng/g. For the same compound, the concentration at 2 hr [4, 11] was 63700 ng/g, the concentration at 3 h [4, 11] was 38800 ng/g and the concentration at 5 h [4, 11] was 23400 ng/g. The concentration at 8 h [4, 11] was 11400 ng/g, the concentration at 0.5 h [4, 12] was 39800 ng/g and the concentration at 1 h [4, 12] was 52000 ng/g. It also gave a concentration at 1.5 h [4, 12] of 50400 ng/g, a concentration at 2 hr [4, 12] of 50800 ng/g and a concentration at 3 h [4, 12] of 28300 ng/g. For the same compound, the concentration at 5 h [4, 12] was 18400 ng/g, the concentration at 8 h [4, 12] was 8260 ng/g and the concentration at 0.5 h [4, 13] was 15500 ng/mL. The concentration at 1 h [4, 13] was 14200 ng/mL, the concentration at 1.5 h [4, 13] was 12100 ng/mL and the concentration at 2 hr [4, 13] was 12000 ng/mL. The concentration at 3 h [4, 13] was 6240 ng/mL, the concentration at 5 h [4, 13] was 4320 ng/mL and the concentration at 8 h [4, 13] was 2290 ng/mL. For the same compound, the AUC(0-t) ([4]; plasma, ICR mice, p.o. 100 mg/kg, read-out: AUC0-t Plasma) was 53600 ng·h/mL, the concentration at 0.5 h [4, 14] was 102000 ng/g and the concentration at 1 h [4, 14] was 112000 ng/g. The concentration at 1.5 hr [4, 14] was 107000 ng/g, the concentration at 2 hr [4, 14] was 102000 ng/g and the concentration at 3 h [4, 14] was 59800 ng/g. For the same compound, the concentration at 5 h [4, 14] was 42100 ng/g, the concentration at 8 h [4, 14] was 21500 ng/g and the concentration at 1.5 hr [4, 15] was 12700 ng/g. For the same compound, the concentration at 2 hr [4, 15] was 17000 ng/g, the concentration at 3 h [4, 15] was 14200 ng/g and the concentration at 5 h [4, 15] was 12900 ng/g. The concentration at 0.5 h [4, 16] was 24600 ng/g, the concentration at 1 h [4, 16] was 58000 ng/g and the concentration at 1.5 hr [4, 16] was 60800 ng/g. For the same compound, the concentration at 2 hr [4, 16] was 61300 ng/g, the concentration at 3 h [4, 16] was 38400 ng/g and the concentration at 5 h [4, 16] was 25700 ng/g. The concentration at 8 h [4, 16] was 12800 ng/g, the Kp [5] was 8.66 and the “Lethal dose 50” value (Male ICR mice) was 176 mg/kg.
